Laboratory results taken from ChEMBL document CHEMBL1154836, “Synthesis of glycoside derivatives of hydroxyanthraquinone with ability to dissolve and inhibit formation of crystals of calcium oxalate. Potential compounds in kidney stone therapy” (Eur J Med Chem, 2010).

How the values were obtained:
L929 = assay: Cytotoxicity against mouse L929 cells at 500 ug/ml; assay type: cell-based
[1] = Induction of calcium oxalate dissolution assessed as increase in calcium concentration after 5 days by flame photometry relative to untreated control; assay type: physicochemical; settings: 120 h
[2] = Induction of surgically removed human kidney stone dissolution assessed as increase in calcium concentration after 5 days by flame photometry relative to untreated control; assay type: functional
[3] = Inhibition of calcium oxalate crystal formation assessed as change of shift in titration end point by conductometric titration; assay type: functional
A549 = assay: Cytotoxicity against human A549 cells at 500 ug/ml; assay type: cell-based

| SMILES | Activity (L929) | Activity [1] [%] | Activity [2] [%] | Activity [3] [µL] | Activity (A549) |
| --- | --- | --- | --- | --- | --- |
| O=C1c2ccccc2C(=O)c2c1ccc(O[C@@H]1O[C@H](CO)[C@@H](O)[C@H](O)[C@H]1O)c2O | Non-toxic | 595 | 1583 | 80 | Non-toxic |
| O=C1c2ccccc2C(=O)c2c1ccc(O[C@@H]1O[C@H](CO)[C@H](O)[C@H](O)[C@H]1O)c2O | Non-toxic | 432 | 1500 | 70 | Non-toxic |
| O=C1c2ccc(O[C@@H]3O[C@H](CO)[C@@H](O)[C@H](O)[C@H]3O)c(O)c2C(=O)c2c(O)ccc(O)c21 | – | 1513 | 4833 | 180 | – |
| O=C1c2ccc(O[C@@H]3O[C@H](CO)[C@H](O)[C@H](O)[C@H]3O)c(O)c2C(=O)c2c(O)ccc(O)c21 | – | 513 | 1667 | 170 | – |
| O=C1c2ccccc2C(=O)c2c(O)ccc(O)c21 [QUINIZARIN] | Toxic | 205 | 833 | 30 | Toxic |
| O=C1c2ccccc2C(=O)c2c1ccc(O)c2O [ATHRAQUINONES A] | Toxic | 246 | 717 | 40 | Toxic |
| O=C1c2ccccc2C(=O)c2c(O[C@@H]3O[C@H](CO)[C@@H](O)[C@H](O)[C@H]3O)ccc(O)c21 | Non-toxic | 541 | 2000 | 60 | Non-toxic |
| O=C1c2ccc(O)c(O)c2C(=O)c2c(O)ccc(O)c21 [QUINALIZARIN] | – | 1324 | 4167 | 90 | – |
